Literature values in patent US20230382903A1, “SMALL MOLECULE MODULATORS OF GP130 SIGNALING PATHWAYS, TOPICAL FORMULATIONS AND METHOD OF USE THEREOF” (CarthroniX, Inc., priority 2020, published 2023).

Tests used:
[1] = system: cartilage degeneration; conditions: rat model of OA
[2] = target: T1, gp130 (Homo sapiens, UniProt P40189)
T1 sequence (P40189 23-918): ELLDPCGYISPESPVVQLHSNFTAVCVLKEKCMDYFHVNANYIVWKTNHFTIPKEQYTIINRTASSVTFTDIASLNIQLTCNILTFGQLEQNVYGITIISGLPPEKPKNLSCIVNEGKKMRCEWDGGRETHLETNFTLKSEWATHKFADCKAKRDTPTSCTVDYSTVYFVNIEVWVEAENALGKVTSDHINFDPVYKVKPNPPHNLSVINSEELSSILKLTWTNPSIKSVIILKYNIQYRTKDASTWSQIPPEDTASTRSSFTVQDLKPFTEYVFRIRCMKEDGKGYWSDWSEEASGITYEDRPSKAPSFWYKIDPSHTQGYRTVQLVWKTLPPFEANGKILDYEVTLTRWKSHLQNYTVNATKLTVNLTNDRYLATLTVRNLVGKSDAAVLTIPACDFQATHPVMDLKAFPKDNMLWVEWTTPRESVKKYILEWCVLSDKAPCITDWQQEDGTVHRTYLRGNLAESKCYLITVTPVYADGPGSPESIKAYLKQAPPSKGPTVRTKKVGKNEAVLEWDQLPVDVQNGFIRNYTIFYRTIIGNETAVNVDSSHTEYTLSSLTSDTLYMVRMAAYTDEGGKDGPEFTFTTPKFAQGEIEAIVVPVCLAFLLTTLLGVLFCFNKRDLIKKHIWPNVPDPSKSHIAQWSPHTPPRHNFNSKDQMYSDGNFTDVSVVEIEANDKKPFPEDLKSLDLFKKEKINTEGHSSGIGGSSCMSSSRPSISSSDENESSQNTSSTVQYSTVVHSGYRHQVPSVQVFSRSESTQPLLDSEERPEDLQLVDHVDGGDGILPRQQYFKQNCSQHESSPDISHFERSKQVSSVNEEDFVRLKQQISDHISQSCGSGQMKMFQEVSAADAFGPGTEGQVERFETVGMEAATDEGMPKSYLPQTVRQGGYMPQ

SMILES: Brc1ccc(Nc2nc(-c3ccccc3)cs2)cc1 [RCGD 423]
- prevention of cartilage degeneration [1]: remarkable ability to prevent cartilage degeneration
- interaction with gp130 ([2]; in vitro): interacts with the extracellular region of gp130
- formation of gp130 homodimers ([2]; ligand-independent): promotes the formation of active, ligand-independent gp130 homodimers
